# Assay results from ChEMBL document CHEMBL4330135, “Discovery of 2-phenylthiazole-4-carboxylic acid, a novel and potent scaffold as xanthine oxidase inhibitors” (Bioorg Med Chem Lett, 2019).
# pIC50: −log10 of the molar value. Activity calls are given as the source filed them. The rule behind the calls is not given here.
# Key:
# [1] = target: T1, Xanthine dehydrogenase/oxidase (Bos taurus, UniProt P80457); assay: Inhibition of bovine milk xanthine oxidase at 10 uM using xanthine as substrate preincubated for 3 mins followed by substrate addition and measured at 1 min for 10 mins relative to control; conditions: cattle
# T1 sequence (P80457 whole entry): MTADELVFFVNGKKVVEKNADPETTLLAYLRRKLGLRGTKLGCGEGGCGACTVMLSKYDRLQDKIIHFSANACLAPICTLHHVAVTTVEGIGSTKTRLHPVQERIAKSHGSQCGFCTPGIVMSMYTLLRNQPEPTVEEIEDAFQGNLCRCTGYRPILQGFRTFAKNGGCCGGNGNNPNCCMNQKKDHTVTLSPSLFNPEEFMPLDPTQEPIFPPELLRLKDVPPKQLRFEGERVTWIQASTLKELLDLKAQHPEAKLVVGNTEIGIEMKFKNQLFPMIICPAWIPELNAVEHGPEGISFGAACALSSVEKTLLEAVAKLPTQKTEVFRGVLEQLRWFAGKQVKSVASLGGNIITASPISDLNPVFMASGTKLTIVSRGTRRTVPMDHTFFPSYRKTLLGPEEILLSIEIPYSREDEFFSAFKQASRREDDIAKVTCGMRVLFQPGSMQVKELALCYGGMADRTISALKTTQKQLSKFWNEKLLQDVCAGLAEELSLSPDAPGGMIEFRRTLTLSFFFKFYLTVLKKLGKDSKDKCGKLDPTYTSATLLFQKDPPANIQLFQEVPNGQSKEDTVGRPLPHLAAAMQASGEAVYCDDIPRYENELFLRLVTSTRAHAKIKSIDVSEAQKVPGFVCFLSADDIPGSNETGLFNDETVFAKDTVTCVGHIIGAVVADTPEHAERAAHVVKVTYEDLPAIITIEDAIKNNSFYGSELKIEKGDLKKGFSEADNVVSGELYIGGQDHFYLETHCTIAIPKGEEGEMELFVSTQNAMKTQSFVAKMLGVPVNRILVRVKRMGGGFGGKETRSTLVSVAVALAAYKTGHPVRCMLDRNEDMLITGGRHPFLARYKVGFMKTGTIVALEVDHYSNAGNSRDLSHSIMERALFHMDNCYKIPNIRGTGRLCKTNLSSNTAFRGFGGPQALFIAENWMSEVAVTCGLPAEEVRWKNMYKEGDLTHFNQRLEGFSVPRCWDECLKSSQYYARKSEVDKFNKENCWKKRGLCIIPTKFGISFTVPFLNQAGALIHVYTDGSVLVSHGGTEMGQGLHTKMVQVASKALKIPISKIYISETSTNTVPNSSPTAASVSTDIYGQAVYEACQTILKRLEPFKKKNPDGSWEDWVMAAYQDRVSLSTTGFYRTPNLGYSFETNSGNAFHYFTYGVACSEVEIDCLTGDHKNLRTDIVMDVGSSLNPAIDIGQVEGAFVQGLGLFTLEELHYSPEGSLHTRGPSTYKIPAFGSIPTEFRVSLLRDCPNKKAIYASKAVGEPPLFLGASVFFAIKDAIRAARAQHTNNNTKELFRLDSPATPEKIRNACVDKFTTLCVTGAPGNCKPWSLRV
# [2] = target: T1, Xanthine dehydrogenase/oxidase; assay: Inhibition of bovine milk xanthine oxidase using xanthine as substrate preincubated for 3 mins followed by substrate addition and measured at 1 min for 10 mins
# Mus musculus [3] = assay: Hypouricemic effect in ICR mouse model of potassium oxonate and hypoxanthine-induced acute hyperuricemia assessed as reduction in serum uric acids level at 20 mg/kg, po dosed 1 hr after potassium oxonate and hypoxanthine challenge and measured after 1 hr; type: functional, organism-based
# Mus musculus [4] = assay: Hypouricemic effect in ICR mouse model of potassium oxonate and hypoxanthine-induced acute hyperuricemia assessed as reduction in serum uric acids level at 5 mg/kg, po dosed 1 hr after potassium oxonate and hypoxanthine challenge and measured after 1 hr; type: functional, organism-based
SMILES,inhibition at 10 µM [1] [%],also measured
Cc1nc(-c2ccccc2)oc1C(=O)O,12.5,–
CC(C)COc1ccc(-c2nc(C(=O)O)cs2)cc1[N+](=O)[O-],–,pIC50 [2]: 7.31; Activity (Mus musculus [3]): Active
O=C(O)c1cc(-c2ccccc2)on1,4.2,–
O=C(O)c1csc(-c2ccccc2)n1,32.8,–
Cc1nc(-c2ccc(OCC(C)C)c([N+](=O)[O-])c2)sc1C(=O)O,–,pIC50 [2]: 7.48; Activity (Mus musculus [3]): Active
O=C(O)c1nc(-c2ccccc2)cs1,18.6,–
Cc1cc(C(=O)O)nn1-c1ccccc1,13.9,–
Cc1nc(-c2ccc(OCC(C)C)c(C#N)c2)sc1C(=O)O [FEBUXOSTAT],98.5,Activity (Mus musculus [4]): Active
Cc1nc(-c2ccccc2)sc1C(=O)O,37.6,–
